Data published in patent US20100047314A1 (OsteoGeneX Inc., priority 2008, published 2010).

How the values were obtained:
[1] = tested on: mouse; test: Mouse bone formation assay of SOST antagonist candidates, examined by micro-CT; format: in vivo; conditions: versus control solution
Text: (§1) Compounds useful in the methods of the present invention can be identified via a variety of methods known to one of skill in the art. Several exemplary methods for identifying such antagonists are described herein, including cell-based and in vitro techniques (Journal of Bone and Mineral Research 2006, 21(11), 1738-1749). A general method of identifying SOST antagonists involves evaluating the effects of antagonist candidates on bone formation under controlled conditions. Preferably bone formation is determined using micro-CT techniques on live animals. Preferred animals include rodents, more preferred are primates. Femur, tibia and vertebrae bones are particularly useful subjects for such study.
Briefly, the test animal is treated with a predetermined dose of a SOST antagonist candidate. […]
Once the dosing schedule has been completed, both test and control animals are examined to determine the quantity of bone formation present. […] Where necessary, levels of bone formation can be calculated by determining the volume of bone formation present in each animal. […]
For example, the mouse test animal is treated with a predetermined dose of a SOST antagonist candidate for a complete dosing schedule. […] Once the dosing schedule has been completed, both test and control animals are examined with sacrifice using micro-CT to determine the quantity of bone formation present.

[2] = tested on: Wnt pathway; test: Modulation of the Wnt pathway (FIG. 1); conditions: doses of 2.5 ng (low), 60 ng (medium), 125 ng (high) and 1250 ng (very high)
Text: as §1

[3] = tested on: male C57BL/6 mice; test: Serum osteocalcin bone formation marker by EIA Elisa in mice treated 30 days; format: in vivo, mouse; conditions: 100 mg/kg i.p. daily for 30 days, four month old male C57BL/6 mice
Description: (§2) Four month old male C57BL/6 mice were treated daily with saline vehicle or the sclerostin inhibitor of calcium folinate at 10-100 mg/kg (via i.p) for 30 days. Study endpoints included a biochemical marker of bone formation; osteocalcin, measured by EIA Elisa, and measurement of trabecular bone volume by mico-CT analysis on the proximal tibia and Lumbar L5.

[4] = tested on: male C57BL/6 mice; test: Trabecular bone volume by micro-CT analysis on proximal tibia and lumbar L5; format: in vivo, mouse
Description: as §2

Compound	quantity of bone formation (promotion of bone growth) [1]	modulation of the Wnt pathway to promote bone growth [2]	percent increase in serum osteocalcin bone formation marker over saline controls [3] [%]	increase in bone volume for the tibia over baseline controls ([4]; 10 mg/kg i.p. daily for 30 days, proximal tibia, micro-CT)	increase in bone volume for lumbar L5 over controls ([4]; 100 mg/kg i.p. daily for 30 days, lumbar L5, micro-CT) [%]
Nc1nc(=O)c2c([nH]1)NCC(CNc1ccc(C(=O)NC(CCC(=O)O)C(=O)O)cc1)N2C=O (centres unmarked) [folinic acid]	promoting bone growth	modulating the Wnt pathway to promote bone growth	–	–	–
Nc1nc(=O)c2c([nH]1)NCC(CNc1ccc(C(=O)N[C@@H](CCC(=O)[O-])C(=O)[O-])cc1)N2C=O.[Ca+2] (some centres unmarked) [calcium folinate]	–	–	41	greater than 37%	51
